Experimental data as given in the supplement of paper PMC10307832.

Key:
Assay in all cases: relative viability (nuclei count vs DMSO), 5 days (fraction); higher = more cells survive
NCI-H1437 = system: NCI-H1437
Procedure, shortened: (§1)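 Lung cancer cell lines, seeded in 1536-well plates, were treated the following day by pin tool with a single drug or with five library-drug doses (not always all listed) in √10 steps on top of a fixed anchor-drug dose. Cells were fixed and nuclei stained in one step after 5 days, and nuclei were counted. Relative viability is the nuclei count for treated wells divided by that for vehicle wells, reported as medians of duplicate plates.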

NCI-H2023 = system: NCI-H2023
Procedure, shortened: as §1

HCC-15 = system: HCC-15
Procedure, shortened: as §1

NCI-H727 = system: NCI-H727
Procedure, shortened: as §1

LCLC-103H = system: LCLC-103H
Procedure, shortened: as §1

UMC-11 = system: UMC-11
Procedure, shortened: as §1

NCI-H1975 = system: NCI-H1975
Procedure, shortened: as §1

HCC-44 = system: HCC-44
Procedure, shortened: as §1

SK-LU-1 = system: SK-LU-1
Procedure, shortened: as §1

NCI-H2085 = system: NCI-H2085
Procedure, shortened: as §1

COR-L 105 = system: COR-L 105
Procedure, shortened: as §1

NCI-H2405 = system: NCI-H2405
Procedure, shortened: as §1

**Q.** Which relative viability (NCI-H1437; first compound 2.53 µM) does the source give for `CCCCCCCCCCCC1=C(O)C(=O)C=C(O)C1=O` [Embelin] + CCNC(=O)c1noc(-c2cc(C(C)C)c(O)cc2O)c1-c1ccc(CN2CCOCC2)cc1 [Luminespib] (partner 0.01 µM) here?
**A.** 1.08

**Q.** And the relative viability (NCI-H1437; first compound 8 µM)?
**A.** 0.622

**Q.** What about the relative viability (NCI-H2023; first compound 0.08 µM) of the same compound?
**A.** 0.813

**Q.** What about the relative viability (NCI-H2023; first compound 0.8 µM) of the same compound?
**A.** 0.914

**Q.** What about the relative viability (NCI-H2023; first compound 2.53 µM) of the same compound?
**A.** 0.773

**Q.** What about the relative viability (NCI-H2023; first compound 8 µM) of the same compound?
**A.** 0.372

**Q.** And the relative viability (HCC-15; first compound 0.08 µM)?
**A.** 0.243

**Q.** And the relative viability (HCC-15; first compound 0.8 µM)?
**A.** 0.299

**Q.** And the relative viability (HCC-15; first compound 2.53 µM)?
**A.** 0.3

**Q.** What about the relative viability (HCC-15; first compound 8 µM) of the same compound?
**A.** 0.302

**Q.** What about the relative viability (NCI-H727; first compound 0.08 µM) of the same compound?
**A.** 0.317

**Q.** What about the relative viability (NCI-H727; first compound 0.8 µM) of the same compound?
**A.** 0.417

**Q.** What about the relative viability (NCI-H727; first compound 2.53 µM) of the same compound?
**A.** 0.304

**Q.** What about the relative viability (NCI-H727; first compound 8 µM) of the same compound?
**A.** 0.386

**Q.** What about the relative viability (LCLC-103H; first compound 0.08 µM) of the same compound?
**A.** 1

**Q.** What about the relative viability (LCLC-103H; first compound 0.8 µM) of the same compound?
**A.** 1.03

**Q.** What about the relative viability (LCLC-103H; first compound 2.53 µM) of the same compound?
**A.** 1.14

**Q.** What about the relative viability (LCLC-103H; first compound 8 µM) of the same compound?
**A.** 0.926

**Q.** And the relative viability (UMC-11; first compound 0.08 µM)?
**A.** 1.1

**Q.** And the relative viability (UMC-11; first compound 0.8 µM)?
**A.** 1.15

**Q.** What about the relative viability (UMC-11; first compound 2.53 µM) of the same compound?
**A.** 1.27

**Q.** And the relative viability (UMC-11; first compound 8 µM)?
**A.** 1.22

**Q.** What about the relative viability (NCI-H1975; first compound 0.08 µM) of the same compound?
**A.** 0.296

**Q.** And the relative viability (NCI-H1975; first compound 0.8 µM)?
**A.** 0.282

**Q.** What about the relative viability (NCI-H1975; first compound 2.53 µM) of the same compound?
**A.** 0.293

**Q.** What about the relative viability (NCI-H1975; first compound 8 µM) of the same compound?
**A.** 0.2

**Q.** And the relative viability (HCC-44; first compound 0.08 µM)?
**A.** 1.04

**Q.** What about the relative viability (HCC-44; first compound 0.8 µM) of the same compound?
**A.** 1.1

**Q.** What about the relative viability (HCC-44; first compound 2.53 µM) of the same compound?
**A.** 1.37

**Q.** What about the relative viability (HCC-44; first compound 8 µM) of the same compound?
**A.** 0.852

**Q.** What about the relative viability (SK-LU-1; first compound 0.08 µM) of the same compound?
**A.** 0.206

**Q.** And the relative viability (SK-LU-1; first compound 0.8 µM)?
**A.** 0.186

**Q.** What about the relative viability (SK-LU-1; first compound 2.53 µM) of the same compound?
**A.** 0.182

**Q.** And the relative viability (SK-LU-1; first compound 8 µM)?
**A.** 0.204

**Q.** What about the relative viability (NCI-H2085; first compound 0.08 µM) of the same compound?
**A.** 0.458

**Q.** And the relative viability (NCI-H2085; first compound 0.8 µM)?
**A.** 0.463

**Q.** And the relative viability (NCI-H2085; first compound 2.53 µM)?
**A.** 0.469

**Q.** And the relative viability (NCI-H2085; first compound 8 µM)?
**A.** 0.4

**Q.** And the relative viability (COR-L 105; first compound 0.08 µM)?
**A.** 0.778

**Q.** And the relative viability (COR-L 105; first compound 0.8 µM)?
**A.** 0.894

**Q.** And the relative viability (COR-L 105; first compound 2.53 µM)?
**A.** 0.737

**Q.** What about the relative viability (COR-L 105; first compound 8 µM) of the same compound?
**A.** 0.624

**Q.** What about the relative viability (NCI-H2405; first compound 0.08 µM) of the same compound?
**A.** 0.723

**Q.** And the relative viability (NCI-H2405; first compound 0.8 µM)?
**A.** 0.681

**Q.** What about the relative viability (NCI-H2405; first compound 2.53 µM) of the same compound?
**A.** 0.775

**Q.** And the relative viability (NCI-H2405; first compound 8 µM)?
**A.** 0.738
